Experimental data reported in ChEMBL document CHEMBL4808217, “Design, Synthesis, and Characterization of 4-Aminoquinazolines as Potent Inhibitors of the G Protein-Coupled Receptor Kinase 6 (GRK6) for the Treatment of Multiple Myeloma” (J Med Chem, 2021).

Columns and labels:
[1] = target: T1, G protein-coupled receptor kinase 6 (Homo sapiens, UniProt P43250); assay: Inhibition of recombinant full-length human GRK6 using casein as substrate measured after 80 mins in presence of [gamma33P]ATP by radiometric scintillation counting method
Focal adhesion kinase 1 = Focal adhesion kinase 1 (Homo sapiens, UniProt Q05397); assay: Inhibition of recombinant human FAK (411 to 686 residues) using EEEEYEEEEEEYY as substrate incubated for 40 mins in presence of [gamma-33ATP] by scintillation counting based radiometry assay
[2] = target: Tyrosine-protein kinase JAK2 (Homo sapiens, UniProt O60674); assay: Inhibition of recombinant human JAK2 (808 to end residues) using KTFCGTPEYLAPE as substrate incubated for 40 mins in presence of [gamma33P]ATP by radiometric scintillation counting analysis
Rhodopsin kinase GRK1 = target: T2, Rhodopsin kinase GRK1 (Homo sapiens, UniProt Q15835); assay: Inhibition of human GRK1 using casein as substrate in presence of [gamma33P]ATP by radiometric hotspot kinase assay
T2 sequence (Q15835 whole entry): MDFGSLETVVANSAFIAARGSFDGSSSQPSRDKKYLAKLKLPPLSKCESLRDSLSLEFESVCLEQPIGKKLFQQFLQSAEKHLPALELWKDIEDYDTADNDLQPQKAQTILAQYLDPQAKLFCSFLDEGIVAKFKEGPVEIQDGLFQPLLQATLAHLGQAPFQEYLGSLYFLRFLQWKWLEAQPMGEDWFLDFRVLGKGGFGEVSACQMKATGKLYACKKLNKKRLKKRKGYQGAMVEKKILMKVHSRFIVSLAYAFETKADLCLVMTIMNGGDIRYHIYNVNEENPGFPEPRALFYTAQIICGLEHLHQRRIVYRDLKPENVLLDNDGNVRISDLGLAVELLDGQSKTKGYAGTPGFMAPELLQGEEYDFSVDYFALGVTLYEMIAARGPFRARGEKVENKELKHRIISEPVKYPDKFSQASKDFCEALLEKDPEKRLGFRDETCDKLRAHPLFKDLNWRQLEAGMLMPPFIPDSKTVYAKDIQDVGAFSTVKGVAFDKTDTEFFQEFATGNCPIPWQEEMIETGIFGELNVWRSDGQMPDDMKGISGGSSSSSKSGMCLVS

[3] = target: G protein-coupled receptor kinase 4 (Homo sapiens, UniProt P32298); assay: Inhibition of human GRK4 using casein as substrate in presence of [gamma33P]ATP by radiometric hotspot kinase assay
[4] = target: T1, G protein-coupled receptor kinase 6; assay: Inhibition of human GRK6 using casein as substrate in presence of [gamma33P]ATP by radiometric hotspot kinase assay

T1 sequence (P43250 whole entry, the tested form may be a part): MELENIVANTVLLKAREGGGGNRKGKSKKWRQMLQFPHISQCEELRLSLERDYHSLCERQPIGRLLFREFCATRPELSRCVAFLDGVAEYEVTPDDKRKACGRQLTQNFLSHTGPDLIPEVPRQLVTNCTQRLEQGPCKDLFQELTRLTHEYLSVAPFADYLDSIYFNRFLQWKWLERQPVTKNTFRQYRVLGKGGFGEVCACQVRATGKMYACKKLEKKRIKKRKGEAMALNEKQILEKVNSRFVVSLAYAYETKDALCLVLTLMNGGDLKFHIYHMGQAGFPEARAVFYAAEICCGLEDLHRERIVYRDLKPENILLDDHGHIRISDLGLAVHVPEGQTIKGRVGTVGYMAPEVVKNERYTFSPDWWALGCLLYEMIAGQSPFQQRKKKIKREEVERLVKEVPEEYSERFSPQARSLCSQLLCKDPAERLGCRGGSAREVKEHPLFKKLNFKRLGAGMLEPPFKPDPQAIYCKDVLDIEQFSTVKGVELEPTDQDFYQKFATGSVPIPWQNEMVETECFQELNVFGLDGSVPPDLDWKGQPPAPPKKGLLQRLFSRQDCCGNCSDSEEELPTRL
Chain of Tyrosine-protein kinase JAK2 (O60674 whole entry): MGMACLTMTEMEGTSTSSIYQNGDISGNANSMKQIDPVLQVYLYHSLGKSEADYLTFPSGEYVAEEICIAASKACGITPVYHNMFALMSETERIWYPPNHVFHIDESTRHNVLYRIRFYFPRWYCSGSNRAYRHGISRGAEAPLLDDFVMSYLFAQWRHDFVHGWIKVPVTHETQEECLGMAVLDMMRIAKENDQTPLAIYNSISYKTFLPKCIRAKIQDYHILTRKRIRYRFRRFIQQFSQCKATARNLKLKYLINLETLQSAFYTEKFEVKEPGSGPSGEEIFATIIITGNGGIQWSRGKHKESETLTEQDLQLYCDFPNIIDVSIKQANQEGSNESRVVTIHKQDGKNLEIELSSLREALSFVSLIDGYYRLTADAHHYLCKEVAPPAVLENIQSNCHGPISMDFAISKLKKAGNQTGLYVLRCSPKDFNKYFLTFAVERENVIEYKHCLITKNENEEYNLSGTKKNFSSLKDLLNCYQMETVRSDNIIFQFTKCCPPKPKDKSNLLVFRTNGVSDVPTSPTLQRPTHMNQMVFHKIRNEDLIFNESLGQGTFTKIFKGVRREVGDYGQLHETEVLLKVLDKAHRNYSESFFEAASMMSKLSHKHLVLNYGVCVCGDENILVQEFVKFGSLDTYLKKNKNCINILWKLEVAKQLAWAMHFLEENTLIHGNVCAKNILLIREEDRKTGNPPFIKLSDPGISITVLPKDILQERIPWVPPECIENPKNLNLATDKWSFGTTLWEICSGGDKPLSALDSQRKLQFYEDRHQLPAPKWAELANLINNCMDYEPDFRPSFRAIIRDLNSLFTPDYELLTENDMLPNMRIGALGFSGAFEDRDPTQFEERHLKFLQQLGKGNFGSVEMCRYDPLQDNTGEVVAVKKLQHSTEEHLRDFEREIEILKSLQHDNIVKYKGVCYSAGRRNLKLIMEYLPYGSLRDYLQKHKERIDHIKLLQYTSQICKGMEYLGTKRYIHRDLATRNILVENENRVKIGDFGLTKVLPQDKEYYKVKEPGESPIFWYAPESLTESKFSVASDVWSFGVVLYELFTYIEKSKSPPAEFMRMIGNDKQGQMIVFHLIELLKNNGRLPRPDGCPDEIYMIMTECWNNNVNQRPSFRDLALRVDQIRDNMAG
Chain of Focal adhesion kinase 1 (Q05397 whole entry, the tested form may be a part): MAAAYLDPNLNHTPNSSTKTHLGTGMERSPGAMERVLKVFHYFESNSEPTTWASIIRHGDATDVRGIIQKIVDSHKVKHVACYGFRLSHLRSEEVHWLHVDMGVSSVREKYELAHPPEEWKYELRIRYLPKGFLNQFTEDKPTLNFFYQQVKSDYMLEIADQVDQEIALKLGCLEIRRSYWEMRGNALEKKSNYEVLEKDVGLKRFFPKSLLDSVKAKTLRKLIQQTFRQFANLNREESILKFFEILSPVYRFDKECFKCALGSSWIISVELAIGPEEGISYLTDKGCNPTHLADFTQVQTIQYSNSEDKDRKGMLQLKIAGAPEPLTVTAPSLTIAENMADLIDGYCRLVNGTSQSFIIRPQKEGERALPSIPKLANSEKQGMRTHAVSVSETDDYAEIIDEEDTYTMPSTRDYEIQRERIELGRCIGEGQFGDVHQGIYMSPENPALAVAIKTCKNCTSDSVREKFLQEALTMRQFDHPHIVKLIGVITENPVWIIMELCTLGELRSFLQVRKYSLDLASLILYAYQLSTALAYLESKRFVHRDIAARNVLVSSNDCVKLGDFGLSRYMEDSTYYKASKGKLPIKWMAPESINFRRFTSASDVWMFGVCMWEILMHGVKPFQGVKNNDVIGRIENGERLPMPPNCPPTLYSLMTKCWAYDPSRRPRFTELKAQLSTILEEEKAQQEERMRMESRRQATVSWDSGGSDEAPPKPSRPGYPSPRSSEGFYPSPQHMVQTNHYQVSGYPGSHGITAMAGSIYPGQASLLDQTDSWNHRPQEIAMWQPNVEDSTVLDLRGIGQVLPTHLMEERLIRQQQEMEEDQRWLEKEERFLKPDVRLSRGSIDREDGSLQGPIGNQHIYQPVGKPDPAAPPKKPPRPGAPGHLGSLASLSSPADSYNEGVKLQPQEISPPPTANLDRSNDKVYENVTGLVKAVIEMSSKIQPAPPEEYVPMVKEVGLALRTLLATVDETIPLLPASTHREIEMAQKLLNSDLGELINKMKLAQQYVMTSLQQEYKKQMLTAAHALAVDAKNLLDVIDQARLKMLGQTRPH
Chain of G protein-coupled receptor kinase 4 (P32298 whole entry): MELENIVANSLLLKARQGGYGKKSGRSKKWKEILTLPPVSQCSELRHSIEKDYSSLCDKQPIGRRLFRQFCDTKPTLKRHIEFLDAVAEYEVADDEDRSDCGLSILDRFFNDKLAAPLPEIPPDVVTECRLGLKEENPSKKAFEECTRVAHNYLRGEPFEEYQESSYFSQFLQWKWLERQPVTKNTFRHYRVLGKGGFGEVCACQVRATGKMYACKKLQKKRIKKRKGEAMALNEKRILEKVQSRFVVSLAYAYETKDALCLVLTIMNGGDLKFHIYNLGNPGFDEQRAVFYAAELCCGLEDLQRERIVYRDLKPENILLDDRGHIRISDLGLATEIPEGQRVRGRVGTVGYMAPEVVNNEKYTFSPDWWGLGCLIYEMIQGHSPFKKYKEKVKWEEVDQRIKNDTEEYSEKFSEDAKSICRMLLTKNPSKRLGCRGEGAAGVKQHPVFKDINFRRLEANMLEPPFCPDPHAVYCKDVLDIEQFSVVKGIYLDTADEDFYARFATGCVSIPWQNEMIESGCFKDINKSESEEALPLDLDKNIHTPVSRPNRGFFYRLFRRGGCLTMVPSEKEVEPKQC

IC50 [1]: 8 nM
IC50 (Focal adhesion kinase 1): 220 nM
IC50 [2]: > 10000 nM
IC50 (Rhodopsin kinase GRK1): 52 nM
IC50 [3]: 22 nM
IC50 [4]: 3.8 nM
SMILES: CCc1cc(Nc2nc(NCc3ccc(Cl)cc3OC)nc3cccc(OC)c23)n[nH]1
